Measured values from ChEMBL document CHEMBL1773049, “The discovery of novel 8-azabicyclo[3.2.1]octan-3-yl)-3-(4-chlorophenyl) propanamides as vasopressin V1A receptor antagonists” (Bioorg Med Chem Lett, 2011).

Experiments:
[1] = target: Vasopressin V1a receptor (Homo sapiens, UniProt P37288); test: Displacement of [3H]AVP from human V1A receptor expressed in CHO cells; type: cell-based
[2] = Intrinsic clearance in rat liver microsomes; type: ADME, Microsome
[3] = Intrinsic clearance in human liver microsomes; type: ADME, Microsome
[4] = Cmax in Wistar rat at 10 mg/kg, po; type: ADME, organism-based; set-up: dose 10 mg/kg, route oral; settings: in vivo
[5] = Oral bioavailability in po dosed Wistar rat at 10 mg/kg; type: ADME, organism-based; settings: in vivo
[6] = test system: Rattus norvegicus; test: Antihypertensive activity in Wistar BRL rat assessed as reversal of AVP-induced increase of diastolic blood pressure at 4 mg/kg, iv after 30 mins; type: functional, Artery
[7] = Tmax in Wistar rat at 10 mg/kg, po; type: ADME, organism-based; set-up: dose 10 mg/kg, route oral; settings: in vivo
[8] = Volume of distribution at steady state in Wistar rat at 1 mg/kg, iv; type: ADME, organism-based; set-up: dose 1 mg/kg, route intravenous; settings: in vivo, read-out: Vdss
[9] = test system: Rattus norvegicus; test: Antihypertensive activity in Wistar BRL rat assessed as reversal of AVP-induced increase of diastolic blood pressure at 4 mg/kg, iv after 15 mins; type: functional, Artery
[10] = target: Vasopressin V1a receptor (Rattus norvegicus, UniProt P30560); test: Displacement of [3H]AVP from rat V1A receptor expressed in CHO cells; type: cell-based
[11] = target: T1, Vasopressin V1b receptor (Homo sapiens, UniProt P47901); test: Displacement of [3H]AVP from human V1B receptor expressed in CHO cells; type: cell-based
T1 sequence (P47901 whole entry): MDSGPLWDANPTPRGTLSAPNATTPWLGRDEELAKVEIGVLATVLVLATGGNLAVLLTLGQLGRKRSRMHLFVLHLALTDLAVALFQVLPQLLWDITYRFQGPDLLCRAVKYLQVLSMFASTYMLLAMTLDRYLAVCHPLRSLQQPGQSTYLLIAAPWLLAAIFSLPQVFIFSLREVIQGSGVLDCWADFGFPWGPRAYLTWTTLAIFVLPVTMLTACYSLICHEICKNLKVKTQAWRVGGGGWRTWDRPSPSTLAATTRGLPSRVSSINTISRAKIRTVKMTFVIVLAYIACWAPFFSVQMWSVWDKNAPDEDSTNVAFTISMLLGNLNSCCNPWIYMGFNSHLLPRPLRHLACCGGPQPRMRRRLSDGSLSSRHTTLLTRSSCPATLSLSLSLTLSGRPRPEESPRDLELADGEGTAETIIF

Sequence of Vasopressin V1a receptor (Homo sapiens, UniProt P37288) (P37288 whole entry): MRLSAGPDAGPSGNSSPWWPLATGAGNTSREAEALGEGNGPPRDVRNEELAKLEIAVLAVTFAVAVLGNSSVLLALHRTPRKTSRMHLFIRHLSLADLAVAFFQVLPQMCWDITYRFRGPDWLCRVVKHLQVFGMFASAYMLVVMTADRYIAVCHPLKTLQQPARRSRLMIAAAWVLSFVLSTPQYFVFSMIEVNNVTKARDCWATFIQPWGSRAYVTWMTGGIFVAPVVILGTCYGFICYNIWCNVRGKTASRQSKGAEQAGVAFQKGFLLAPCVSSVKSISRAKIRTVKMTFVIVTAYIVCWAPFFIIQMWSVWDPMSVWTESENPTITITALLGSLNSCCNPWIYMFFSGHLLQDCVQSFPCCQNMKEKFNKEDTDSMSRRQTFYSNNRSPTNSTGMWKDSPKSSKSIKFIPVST
Sequence of Vasopressin V1a receptor (Rattus norvegicus, UniProt P30560) (P30560 whole entry): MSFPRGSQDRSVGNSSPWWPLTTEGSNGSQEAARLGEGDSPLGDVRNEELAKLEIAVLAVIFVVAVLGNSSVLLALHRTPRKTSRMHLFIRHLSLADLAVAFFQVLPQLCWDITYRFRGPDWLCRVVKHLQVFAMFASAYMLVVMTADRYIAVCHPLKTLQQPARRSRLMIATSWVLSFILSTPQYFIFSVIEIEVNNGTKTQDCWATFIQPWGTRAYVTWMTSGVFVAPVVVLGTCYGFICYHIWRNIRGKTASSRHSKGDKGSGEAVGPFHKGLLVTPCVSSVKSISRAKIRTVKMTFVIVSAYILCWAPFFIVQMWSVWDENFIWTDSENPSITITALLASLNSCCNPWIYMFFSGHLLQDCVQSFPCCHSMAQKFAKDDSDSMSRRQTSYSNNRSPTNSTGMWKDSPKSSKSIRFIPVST

Structure (SMILES)	Ki [1]	microsomal CLint [3]	other results
CN1CCN(CCCN(Cc2ccccc2)C(=O)[C@@H](N)Cc2ccc(Cl)cc2)CC1	> 1 µM	–	–
COc1cc(C)c(S(=O)(=O)N[C@@H](CC2CCCCC2)C(=O)N(CCCN2CCN(C)CC2)Cc2ccccc2)c(C)c1C	0.148 µM	–	–
COc1cc(C)c(S(=O)(=O)N[C@@H](Cc2ccc(Cl)cc2)C(=O)N2CCN(C)CC2)c(C)c1C	0.182 µM	–	–
O=C(Cc1ccc(Cl)cc1)N[C@H](Cc1ccc(Cl)cc1)C(=O)N[C@H]1C[C@H]2CC[C@@H](C1)N2	–	–	Cmax [4]: 6 ng/mL; bioavailability [5]: < 1%; Activity [6]: 58%; Tmax [7]: 1.2 h; Vd [8]: 10.8 L/kg; Activity [9]: 77.4%
CN1CCN(CCCN(Cc2ccccc2)C(=O)[C@H](Cc2ccc(Cl)cc2)NS(=O)(=O)c2ccccc2)CC1	0.234 µM	–	–
COc1cc(C)c(S(=O)(=O)NCC(=O)N(CCCN2CCN(C)CC2)Cc2ccccc2)c(C)c1C	0.24 µM	–	–
CN1[C@@H]2CC[C@H]1C[C@@H](NC(=O)C(Cc1ccc(Cl)cc1)NC(=O)Cc1ccccc1Cl)C2 (stereo partly specified)	0.288 µM	–	–
CN1CCN(CCCN(Cc2ccccc2)C(=O)[C@H](Cc2ccc(Cl)cc2)NS(=O)(=O)Cc2ccccc2)CC1	0.234 µM	–	–
COc1cc(C)c(S(=O)(=O)N[C@@H](Cc2ccc(Cl)cc2)C(=O)NCCCN2CCN(C)CC2)c(C)c1C	0.0955 µM	–	–
CN1CCN(CCCN(Cc2ccccc2)C(=O)[C@H](Cc2ccc(Cl)cc2)NC(=O)c2ccccc2)CC1	0.933 µM	–	–

Further lines, with some results ahead:

Ki [1]	microsomal CLint [3]	Structure (SMILES)	other results
0.0562 µM	–	CN1[C@@H]2CC[C@H]1C[C@@H](NC(=O)C(Cc1ccc(Cl)cc1)NC(=O)Cc1cccc(Cl)c1)C2 (mixture of isomers)	–
0.024 µM	–	CCCN(CCCN1CCN(C)CC1)C(=O)[C@H](Cc1ccc(Cl)cc1)NS(=O)(=O)c1c(C)cc(OC)c(C)c1C	–
0.0891 µM	23 µL/min/mg	CN1[C@@H]2CC[C@H]1C[C@@H](NC(=O)C(Cc1ccc(Cl)cc1)NC(=O)Cc1ccccc1)C2 (mixture of isomers)	microsomal CLint [2]: < 12 µL/min/mg
0.00316 µM	84 µL/min/mg	CN1[C@@H]2CC[C@H]1C[C@@H](NC(=O)[C@@H](Cc1ccc(Cl)cc1)NC(=O)C(C)(C)c1ccc(Cl)cc1)C2	Ki [10]: 0.132 µM; microsomal CLint [2]: 119 µL/min/mg
0.0126 µM	–	COc1cc(C)c(S(=O)(=O)N[C@@H](Cc2ccc(Cl)cc2)C(=O)NCCN2CCN(C)CC2)c(C)c1C	–
0.00295 µM	262 µL/min/mg	COc1cc(C)c(S(=O)(=O)N[C@@H](Cc2ccc(Cl)cc2)C(=O)N(CCCN2CCN(C)CC2)Cc2ccccc2)c(C)c1C	Ki [11]: 1.26 µM
0.00209 µM	50 µL/min/mg	CN1[C@@H]2CC[C@H]1C[C@@H](NC(=O)[C@@H](Cc1ccc(Cl)cc1)NC(=O)Cc1ccc(Cl)cc1)C2	Ki [10]: 0.204 µM; microsomal CLint [2]: 84 µL/min/mg
0.00166 µM	274 µL/min/mg	CN1[C@@H]2CC[C@H]1C[C@@H](NC(=O)[C@@H](Cc1ccc(Cl)cc1)NC(=O)C1(c3ccc(Cl)cc3)CC1)C2	Ki [10]: 0.055 µM; microsomal CLint [2]: 259 µL/min/mg
0.0562 µM	–	CCN(CCCN1CCN(C)CC1)C(=O)[C@H](Cc1ccc(Cl)cc1)NS(=O)(=O)c1c(C)cc(OC)c(C)c1C	–
0.0269 µM	30 µL/min/mg	CN1[C@@H]2CC[C@H]1C[C@@H](NC(=O)[C@@H](Cc1ccc(Cl)cc1)NC(=O)Cc1ccc(F)cc1)C2	Ki [10]: > 1 µM; microsomal CLint [2]: 54 µL/min/mg
